Measured values: patent US8067408B2, “Dual pharmacophores—PDE4-muscarinic antagonistics” (priority 2008, dated 2011)

Q: With `CCc1nc2c(cnn2CC)c(NC2CCOCC2)c1CNC(=O)c1cccc(C(=O)NCc2ccc(Cl)c(-c3cccc(CN4CCCNCC4)c3)c2)c1` [Example 221, N-{[6-Chloro-3′-(hexahydro-1H-1,4-diazepin-1-ylmethyl)-3-biphenylyl]methyl}-N′-{[1,6-diethyl-4-(tetrahydro-2H-pyran-4-ylamino)-1H-pyrazolo[3,4-b]pyridin-5-yl]methyl}-1,3-benzenedicarboxamide] as the compound, how does the melting point read?
A: 116 to 119 °C

Q: Which melting point does the source give for `CCc1nc2c(cnn2CC)c(NC2CCOCC2)c1CNC(=O)c1cc(C)cc(C(=O)NCc2ccc(OC)c(-c3cccc(CN4CCN[C@@H](C)C4)c3)c2)c1` [Example 423, N-{[1,6-Diethyl-4-(tetrahydro-2H-pyran-4-ylamino)-1H-pyrazolo[3,4-b]pyridin-5-yl]methyl}-5-methyl-N′-[(6-(methyloxy)-3′-{[(3S)-3-methyl-1-piperazinyl]methyl}-3-biphenylyl)methyl]-1,3-benzenedicarboxamide] here?
A: 121 to 123 °C

Q: With `CCc1nc2c(cnn2CC)c(NC2CCOCC2)c1CNC(=O)c1cc(C)cc(C(=O)NCc2ccc(OC)c(-c3cccc(CC4CCN(C)CC4)c3)c2)c1` [Example 427, N-{[1,6-Diethyl-4-(tetrahydro-2H-pyran-4-ylamino)-1H-pyrazolo[3,4-b]pyridin-5-yl]methyl}-5-methyl-N′-({6-(methyloxy)-3′-[(1-methyl-4-piperidinyl)methyl]-3-biphenylyl}methyl)-1,3-benzenedicarboxamide] as the compound, how does the melting point read?
A: 115 to 117 °C

Q: For `CCc1nc2c(cnn2CC)c(NC2CCOCC2)c1CNC(=O)c1cccc(C(=O)NCc2cc(Cl)cc(-c3cccc(CN4CCN(C)CC4)c3)c2)c1` [Example 422, N-({5-Chloro-3′-[(4-methyl-1-piperazinyl)methyl]-3-biphenylyl}methyl)-N′-{[1,6-diethyl-4-(tetrahydro-2H-pyran-4-ylamino)-1H-pyrazolo[3,4-b]pyridin-5-yl]methyl}-1,3-benzenedicarboxamide], which melting point is on record?
A: 116 to 118 °C

Q: With `CCc1nc2c(cnn2CC)c(NC2CCOCC2)c1CNC(=O)c1cccc(C(=O)NCc2ccc(C)c(-c3cccc(CN4CCCN(C)CC4)c3)c2)c1` [Example 216, N-{[1,6-Diethyl-4-(tetrahydro-2H-pyran-4-ylamino)-1H-pyrazolo[3,4-b]pyridin-5-yl]methyl}-N′-({6-methyl-3′-[(4-methylhexahydro-1H-1,4-diazepin-1-yl)methyl]-3-biphenylyl}methyl)-1,3-benzenedicarboxamide] as the compound, how does the melting point read?
A: 107 to 109 °C

Q: For `CCc1nc2c(cnn2CC)c(NC2CCOCC2)c1CNC(=O)c1cccc(C(=O)NCc2cc(Cl)cc(-c3cccc(CN4CCNCC4)c3)c2)c1` [Example 424, N-{[5-Chloro-3′-(1-piperazinylmethyl)-3-biphenylyl]methyl}-N′-{[1,6-diethyl-4-(tetrahydro-2H-pyran-4-ylamino)-1H-pyrazolo[3,4-b]pyridin-5-yl]methyl}-1,3-benzenedicarboxamide], which melting point is on record?
A: 119 to 122 °C

Q: Which melting point does the source give for `CCc1nc2c(cnn2CC)c(NC2CCOCC2)c1CNC(=O)c1cccc(C(=O)NCc2ccc(OC)c(-c3cccc(CN4CCCN(C)CC4)c3)c2)c1` [Example 217, N-{[1,6-Diethyl-4-(tetrahydro-2H-pyran-4-ylamino)-1H-pyrazolo[3,4-b]pyridin-5-yl]methyl}-N′-{[3′-[(4-methylhexahydro-1H-1,4-diazepin-1-yl)methyl]-6-(methyloxy)-3-biphenylyl]methyl}-1,3-benzenedicarboxamide] here?
A: 116 to 119 °C

Q: With `O=C(O)c1cccc(C(=O)NCc2ccc(F)c(-c3cccc(CO)c3)c2)c1` as the compound, how does the melting point read?
A: 169 to 171 °C

Q: For `CCc1nc2c(cnn2CC)c(NC2CCOCC2)c1CNC(=O)c1cccc(C(=O)NCc2ccc(C)c(-c3cccc(CN4CCCNCC4)c3)c2)c1` [Example 196, N-{[1,6-Diethyl-4-(tetrahydro-2H-pyran-4-ylamino)-1H-pyrazolo[3,4-b]pyridin-5-yl]methyl}-N′-{[3′-(hexahydro-1H-1,4-diazepin-1-ylmethyl)-6-methyl-3-biphenylyl]methyl}-1,3-benzenedicarboxamide], which melting point is on record?
A: 118 to 120 °C

Q: For `CCc1nc2c(cnn2CC)c(NC2CCOCC2)c1CNC(=O)c1cccc(C(=O)NCc2ccc(F)c(-c3cccc(CN4CCN(CC)CC4)c3)c2)c1` [Example 202, N-{[1,6-Diethyl-4-(tetrahydro-2H-pyran-4-ylamino)-1H-pyrazolo[3,4-b]pyridin-5-yl]methyl}-N′-({3′-[(4-ethyl-1-piperazinyl)methyl]-6-fluoro-3-biphenylyl}methyl)-1,3-benzenedicarboxamide], which melting point is on record?
A: 155 to 158 °C

Q: With `CCc1nc2c(cnn2CC)c(NC2CCOCC2)c1CNC(=O)c1cccc(C(=O)NCc2ccc(F)c(-c3cccc(CN4CCCCC4)c3)c2)c1` [Example 199, N-{[1,6-Diethyl-4-(tetrahydro-2H-pyran-4-ylamino)-1H-pyrazolo[3,4-b]pyridin-5-yl]methyl}-N′-{[6-fluoro-3′-(1-piperidinylmethyl)-3-biphenylyl]methyl}-1,3-benzenedicarboxamide] as the compound, how does the melting point read?
A: 128 to 131 °C

Q: For `CCc1nc2c(cnn2CC)c(NC2CCOCC2)c1CNC(=O)c1cccc(C(=O)NCc2ccc(OC)c(-c3cccc(CN4CCCNCC4)c3)c2)c1` [Example 195, N-{[1,6-Diethyl-4-(tetrahydro-2H-pyran-4-ylamino)-1H-pyrazolo[3,4-b]pyridin-5-yl]methyl}-N′-{[3′-(hexahydro-1H-1,4-diazepin-1-ylmethyl)-6-(methyloxy)-3-biphenylyl]methyl}-1,3-benzenedicarboxamide], which melting point is on record?
A: 143 to 147 °C

Q: For `CCc1nc2c(cnn2CC)c(NC2CCOCC2)c1CNC(=O)c1cccc(C(=O)NCc2cc(Cl)cc(-c3cccc(CN4C[C@@H]5C[C@H]4CN5)c3)c2)c1` [Example 431, N-({5-Chloro-3′-[(1S,4S)-2,5-diazabicyclo [2.2.1]hept-2-ylmethyl]-3-biphenylyl}methyl)-N′-{[1,6-diethyl-4-(tetrahydro-2H-pyran-4-ylamino)-1H-pyrazolo[3,4-b]pyridin-5-yl]methyl}-1,3-benzenedicarboxamide], which melting point is on record?
A: 130 to 133 °C

Q: With `CCc1nc2c(cnn2CC)c(NC2CCOCC2)c1CNC(=O)c1cccc(C(=O)O)c1` as the compound, how does the melting point read?
A: 207 to 209 °C

Q: For `CCc1nc2c(cnn2CC)c(NC2CCOCC2)c1CNC(=O)c1cc(C)cc(C(=O)NCc2cccc(-c3cccc(CC4CCN(C)CC4)c3)c2)c1` [Example 425, N-{[1,6-Diethyl-4-(tetrahydro-2H-pyran-4-ylamino)-1H-pyrazolo[3,4-b]pyridin-5-yl]methyl}-5-methyl-N′-({3′-[(1-methyl-4-piperidinyl)methyl]-3-biphenylyl}methyl)-1,3-benzenedicarboxamide], which melting point is on record?
A: 119 to 121 °C

Q: For `CCc1nc2c(cnn2CC)c(NC2CCOCC2)c1CNC(=O)c1cccc(C(=O)NCc2ccc(C)c(-c3cccc(CN4C[C@@H](C)N[C@@H](C)C4)c3)c2)c1` [Example 211, N-{[1,6-Diethyl-4-(tetrahydro-2H-pyran-4-ylamino)-1H-pyrazolo[3,4-b]pyridin-5-yl]methyl}-N′-[(3′-{[(3R,5S)-3,5-dimethyl-1-piperazinyl]methyl}-6-methyl-3-biphenylyl)methyl]-1,3-benzenedicarboxamide], which melting point is on record?
A: 109 to 112 °C

Q: For `CCc1nc2c(cnn2CC)c(NC2CCOCC2)c1CNC(=O)c1cccc(C(=O)NCc2cc(Cl)cc(-c3cccc(CN4CCN[C@@H](C)C4)c3)c2)c1` [Example 224, N-[(5-Chloro-3′-{[(3S)-3-methyl-1-piperazinyl]methyl}-3-biphenylyl)methyl]-N′-{[1,6-diethyl-4-(tetrahydro-2H-pyran-4-ylamino)-1H-pyrazolo[3,4-b]pyridin-5-yl]methyl}-1,3-benzenedicarboxamide], which melting point is on record?
A: 119 to 121 °C

Q: Which melting point does the source give for `CCc1nc2c(cnn2CC)c(NC2CCOCC2)c1CNC(=O)c1cccc(C(=O)NCc2ccc(F)c(-c3cccc(CN4C[C@@H]5C[C@H]4CN5C(=O)OC(C)(C)C)c3)c2)c1` here?
A: 119 to 123 °C

Q: With `CCc1nc2c(cnn2CC)c(NC2CCOCC2)c1CNC(=O)c1cccc(C(=O)NCc2ccc(C)c(-c3cccc(CN4C[C@@H]5C[C@H]4CN5)c3)c2)c1` [Example 197, N-({3′-[(1S,4S)-2,5-Diazabicyclo [2.2.1]hept-2-ylmethyl]-6-methyl-3-biphenylyl}methyl)-N′-{[1,6-diethyl-4-(tetrahydro-2H-pyran-4-ylamino)-1H-pyrazolo[3,4-b]pyridin-5-yl]methyl}-1,3-benzenedicarboxamide] as the compound, how does the melting point read?
A: 138 to 140 °C

Q: For `CCc1nc2c(cnn2CC)c(NC2CCOCC2)c1CNC(=O)c1cccc(C(=O)NCc2ccc(F)c(-c3cccc(CN4C[C@H](C)NC[C@H]4C)c3)c2)c1` [Example 198, N-{[1,6-Diethyl-4-(tetrahydro-2H-pyran-4-ylamino)-1H-pyrazolo[3,4-b]pyridin-5-yl]methyl}-N′-[(3′-{[(2R,5S)-2,5-dimethyl-1-piperazinyl]methyl}-6-fluoro-3-biphenylyl)methyl]-1,3-benzenedicarboxamide], which melting point is on record?
A: 187 to 190 °C (dec.)

Q: Which melting point does the source give for `CCc1nc2c(cnn2CC)c(NC2CCOCC2)c1CNC(=O)c1cccc(C(=O)NCc2ccc(Cl)c(-c3cccc(CN4C[C@@H](C)N[C@@H](C)C4)c3)c2)c1` [Example 220, N-[(6-Chloro-3′-{[(3R,5S)-3,5-dimethyl-1-piperazinyl]methyl}-3-biphenylyl)methyl]-N′-{[1,6-diethyl-4-(tetrahydro-2H-pyran-4-ylamino)-1H-pyrazolo[3,4-b]pyridin-5-yl]methyl}-1,3-benzenedicarboxamide] here?
A: 121 to 124 °C

Q: Which melting point does the source give for `CCc1nc2c(cnn2CC)c(NC2CCOCC2)c1CNC(=O)c1cccc(C(=O)NCc2ccc(F)c(-c3cccc(CN4CCN(C(C)C)CC4)c3)c2)c1` [Example 203, N-{[1,6-Diethyl-4-(tetrahydro-2H-pyran-4-ylamino)-1H-pyrazolo[3,4-b]pyridin-5-yl]methyl}-N′-[(6-fluoro-3′-{[4-(1-methylethyl)-1-piperazinyl]methyl}-3-biphenylyl)methyl]-1,3-benzenedicarboxamide] here?
A: 165 to 169 °C

Q: Which melting point does the source give for `CCc1nc2c(cnn2CC)c(NC2CCOCC2)c1CNC(=O)c1cccc(C(=O)NCc2ccc(F)c(-c3cccc(CN4CCN(C)CC4)c3)c2)c1` [Example 200, N-{[1,6-Diethyl-4-(tetrahydro-2H-pyran-4-ylamino)-1H-pyrazolo[3,4-b]pyridin-5-yl]methyl}-AN-({6-fluoro-3′-[(4-methyl-1-piperazinyl)methyl]-3-biphenylyl}methyl)-1,3-benzenedicarboxamide] here?
A: 169 to 173 °C
